Measured values from patent US9340590B2 (priority 2011, dated 2016).
pIC50: −log10 of the molar value. Like-named read-outs stand apart in the source and are kept apart here. Positions of bridges follow the written chain, without caps; N, C: chain ends. Residues, ends and D or L forms follow the SMILES beside them.

How the values were obtained:
Test in all cases: cell-based
hNav1.3 = hNav1.3 (Homo sapiens, UniProt Q9NY46); conditions: IonWorks Quattro, read-out: IWQ Use Nav1.3
hNav1.7 = hNav1.7 (Homo sapiens, UniProt Q15858); type: cell-based
hNav1.5 = hNav1.5 (Homo sapiens, UniProt Q14524)
[1] = use-dependent protocol, hNav1.3
[2] = IonWorks Quattro, use-dependent protocol, hNav1.7, read-out: IWQ Use Nav1.7
[3] = IonWorks Quattro, use-dependent protocol, hNav1.5, read-out: IWQ Use Nav1.5

Chain of hNav1.5 (Q14524 whole entry, looked up): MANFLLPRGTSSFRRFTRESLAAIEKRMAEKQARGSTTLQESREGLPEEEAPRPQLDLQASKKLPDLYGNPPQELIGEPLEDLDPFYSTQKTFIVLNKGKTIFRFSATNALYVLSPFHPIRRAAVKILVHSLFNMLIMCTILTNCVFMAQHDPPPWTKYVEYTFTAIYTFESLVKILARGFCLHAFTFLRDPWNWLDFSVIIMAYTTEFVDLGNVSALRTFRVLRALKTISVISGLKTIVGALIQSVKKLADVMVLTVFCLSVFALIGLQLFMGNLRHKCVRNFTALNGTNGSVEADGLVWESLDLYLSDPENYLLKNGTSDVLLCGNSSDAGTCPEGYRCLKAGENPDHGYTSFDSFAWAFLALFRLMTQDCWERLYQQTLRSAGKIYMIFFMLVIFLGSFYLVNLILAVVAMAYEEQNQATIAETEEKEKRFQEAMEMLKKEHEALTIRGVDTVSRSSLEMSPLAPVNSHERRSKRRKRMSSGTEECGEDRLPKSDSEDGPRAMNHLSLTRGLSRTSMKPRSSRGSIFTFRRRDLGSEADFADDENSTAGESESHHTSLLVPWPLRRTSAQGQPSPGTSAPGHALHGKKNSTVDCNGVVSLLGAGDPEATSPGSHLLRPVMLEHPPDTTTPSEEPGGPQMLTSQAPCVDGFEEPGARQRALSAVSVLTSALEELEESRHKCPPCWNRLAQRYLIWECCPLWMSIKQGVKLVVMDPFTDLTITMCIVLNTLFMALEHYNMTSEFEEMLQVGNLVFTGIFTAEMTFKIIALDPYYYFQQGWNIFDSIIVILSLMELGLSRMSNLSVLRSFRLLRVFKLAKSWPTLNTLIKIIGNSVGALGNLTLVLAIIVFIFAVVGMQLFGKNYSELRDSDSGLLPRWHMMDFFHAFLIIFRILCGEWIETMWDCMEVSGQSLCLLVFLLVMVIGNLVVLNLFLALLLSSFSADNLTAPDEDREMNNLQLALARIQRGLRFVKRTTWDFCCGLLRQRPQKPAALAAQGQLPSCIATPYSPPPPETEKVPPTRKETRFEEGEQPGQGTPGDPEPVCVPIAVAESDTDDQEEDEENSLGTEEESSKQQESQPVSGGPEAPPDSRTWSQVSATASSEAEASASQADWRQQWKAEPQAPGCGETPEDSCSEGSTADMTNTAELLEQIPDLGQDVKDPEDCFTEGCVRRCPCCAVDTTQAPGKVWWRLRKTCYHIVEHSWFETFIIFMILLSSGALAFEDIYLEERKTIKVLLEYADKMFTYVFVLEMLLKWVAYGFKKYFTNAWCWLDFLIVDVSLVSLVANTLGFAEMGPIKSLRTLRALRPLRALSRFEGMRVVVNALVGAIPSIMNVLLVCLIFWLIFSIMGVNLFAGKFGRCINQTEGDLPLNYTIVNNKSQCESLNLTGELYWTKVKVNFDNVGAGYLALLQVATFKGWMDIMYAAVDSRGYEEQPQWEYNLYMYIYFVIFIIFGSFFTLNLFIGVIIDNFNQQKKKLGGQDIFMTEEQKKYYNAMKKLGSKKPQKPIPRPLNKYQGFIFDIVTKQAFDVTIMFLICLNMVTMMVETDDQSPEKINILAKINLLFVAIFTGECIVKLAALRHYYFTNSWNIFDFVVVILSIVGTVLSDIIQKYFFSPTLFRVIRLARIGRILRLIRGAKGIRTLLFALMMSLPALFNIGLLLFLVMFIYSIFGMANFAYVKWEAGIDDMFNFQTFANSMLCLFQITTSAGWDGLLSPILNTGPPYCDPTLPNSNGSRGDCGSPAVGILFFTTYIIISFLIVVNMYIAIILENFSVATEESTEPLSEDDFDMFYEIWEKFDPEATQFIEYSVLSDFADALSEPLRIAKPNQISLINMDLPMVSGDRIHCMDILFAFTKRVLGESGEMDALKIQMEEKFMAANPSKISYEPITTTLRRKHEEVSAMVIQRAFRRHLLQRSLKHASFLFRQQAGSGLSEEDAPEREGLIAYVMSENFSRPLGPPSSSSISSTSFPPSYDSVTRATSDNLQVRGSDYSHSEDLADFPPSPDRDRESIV
Chain of hNav1.7 (Q15858 whole entry, looked up): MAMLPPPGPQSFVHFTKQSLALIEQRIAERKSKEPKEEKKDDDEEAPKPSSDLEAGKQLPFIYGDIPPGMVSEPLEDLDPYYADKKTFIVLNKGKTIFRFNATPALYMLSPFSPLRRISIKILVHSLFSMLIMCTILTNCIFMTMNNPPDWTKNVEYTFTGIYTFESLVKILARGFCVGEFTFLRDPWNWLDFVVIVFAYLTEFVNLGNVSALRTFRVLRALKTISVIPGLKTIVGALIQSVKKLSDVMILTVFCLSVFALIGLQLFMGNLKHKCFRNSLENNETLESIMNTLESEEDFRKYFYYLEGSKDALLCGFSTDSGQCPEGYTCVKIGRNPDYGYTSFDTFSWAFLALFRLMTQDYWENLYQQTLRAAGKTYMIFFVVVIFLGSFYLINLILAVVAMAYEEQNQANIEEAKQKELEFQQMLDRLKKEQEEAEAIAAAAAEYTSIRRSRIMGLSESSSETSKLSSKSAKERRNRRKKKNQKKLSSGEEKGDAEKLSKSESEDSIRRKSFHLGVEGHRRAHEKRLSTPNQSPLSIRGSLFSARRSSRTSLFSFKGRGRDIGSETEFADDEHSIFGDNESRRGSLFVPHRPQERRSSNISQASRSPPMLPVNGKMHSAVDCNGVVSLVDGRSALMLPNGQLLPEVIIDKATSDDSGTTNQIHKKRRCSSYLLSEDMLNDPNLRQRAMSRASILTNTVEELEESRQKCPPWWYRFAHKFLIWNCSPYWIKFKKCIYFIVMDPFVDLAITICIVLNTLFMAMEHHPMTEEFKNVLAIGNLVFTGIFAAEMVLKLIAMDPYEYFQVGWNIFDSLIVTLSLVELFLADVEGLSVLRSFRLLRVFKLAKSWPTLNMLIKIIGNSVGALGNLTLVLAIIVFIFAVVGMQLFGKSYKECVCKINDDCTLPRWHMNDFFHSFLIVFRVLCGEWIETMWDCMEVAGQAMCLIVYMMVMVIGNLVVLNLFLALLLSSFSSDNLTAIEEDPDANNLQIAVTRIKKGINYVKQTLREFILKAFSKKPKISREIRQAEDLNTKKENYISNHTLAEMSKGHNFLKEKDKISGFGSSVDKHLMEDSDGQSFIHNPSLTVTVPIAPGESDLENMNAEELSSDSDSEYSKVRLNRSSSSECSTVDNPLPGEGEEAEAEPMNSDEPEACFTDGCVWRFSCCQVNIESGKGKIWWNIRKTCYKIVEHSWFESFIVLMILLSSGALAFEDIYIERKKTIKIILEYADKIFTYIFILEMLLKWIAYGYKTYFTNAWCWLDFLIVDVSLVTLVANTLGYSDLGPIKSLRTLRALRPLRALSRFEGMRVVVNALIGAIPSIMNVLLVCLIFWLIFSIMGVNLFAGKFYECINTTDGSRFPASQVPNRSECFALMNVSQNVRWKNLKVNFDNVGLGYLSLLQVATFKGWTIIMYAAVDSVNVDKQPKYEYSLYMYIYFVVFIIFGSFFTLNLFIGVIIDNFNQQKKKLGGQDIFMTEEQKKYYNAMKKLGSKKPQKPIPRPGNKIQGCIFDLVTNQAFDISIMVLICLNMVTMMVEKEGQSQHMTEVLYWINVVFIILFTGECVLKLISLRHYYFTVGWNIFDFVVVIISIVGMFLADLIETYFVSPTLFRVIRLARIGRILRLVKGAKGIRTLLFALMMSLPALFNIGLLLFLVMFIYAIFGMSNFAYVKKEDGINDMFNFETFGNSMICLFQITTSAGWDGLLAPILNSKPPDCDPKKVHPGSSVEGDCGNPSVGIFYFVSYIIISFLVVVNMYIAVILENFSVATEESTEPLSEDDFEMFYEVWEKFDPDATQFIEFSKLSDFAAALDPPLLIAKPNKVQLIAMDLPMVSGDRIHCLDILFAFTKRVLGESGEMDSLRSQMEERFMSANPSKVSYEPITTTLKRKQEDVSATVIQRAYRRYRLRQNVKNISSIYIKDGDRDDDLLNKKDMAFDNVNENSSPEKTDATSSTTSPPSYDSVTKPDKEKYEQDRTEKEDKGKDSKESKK

For `CC[C@H](C)[C@@H]1NC(=O)[C@@H]2CSSC[C@@H]3NC(=O)[C@H](C(C)C)NC(=O)[C@H](CC(C)C)NC(=O)[C@H](CC(N)=O)NC(=O)[C@@H]4CCCN4C(=O)[C@H](CCCNC(=N)N)NC(=O)[C@H](CSSC[C@H](NC(=O)[C@@H](N)CC(=O)O)C(=O)N[C@@H](CC(C)C)C(=O)NCC(=O)N[C@@H](C(C)C)C(=O)N[C@@H](CC(C)C)C(=O)N[C@@H](CCCNC(=N)N)C(=O)N[C@@H](CCCCN)C(=O)N2)NC(=O)[C@H](CSSC[C@@H](C(=O)N[C@@H](CCCCN)C(=O)N[C@@H](Cc2ccc(O)cc2)C(=O)N[C@H](C(=O)N[C@@H](Cc2ccccc2)C(N)=O)C(C)C)NC(=O)[C@H](Cc2c[nH]c4ccccc24)NC(=O)[C@H](CCCCN)NC(=O)[C@H](Cc2c[nH]cn2)NC(=O)[C@H]([C@@H](C)O)NC(=O)[C@H](CCCNC(=N)N)NC(=O)[C@H](CO)NC3=O)NC(=O)[C@H](CCCCN)NC(=O)[C@H](CC(=O)O)NC(=O)[C@H](CC(N)=O)NC(=O)[C@H](CC(=O)O)NC(=O)[C@@H]2CCCN2C1=O` [compound 644] (H-DCLGVLRKCIPDNDKCCRPNLVCSRTHKWCKYVF-NH2; disulfide 2-17, 9-23, 16-30), the pIC50 (hNav1.3; [1]) was 6.32, the pIC50 (hNav1.7; [2]) was 6.82 and the pIC50 (hNav1.5; [3]) was less than 5.30.
`CC[C@H](C)[C@@H]1NC(=O)[C@@H]2CSSC[C@@H]3NC(=O)[C@H](C(C)C)NC(=O)[C@H](CC(C)C)NC(=O)[C@H](CC(N)=O)NC(=O)[C@@H]4CCCN4C(=O)[C@H](CCCNC(=N)N)NC(=O)[C@H](CSSC[C@H](NC(=O)[C@@H](N)CC(=O)O)C(=O)N[C@@H](CC(C)C)C(=O)NCC(=O)N[C@@H](Cc4ccccc4)C(=O)N[C@@H](CCSC)C(=O)N[C@@H](CCCNC(=N)N)C(=O)N[C@@H](CCCCN)C(=O)N2)NC(=O)[C@H](CSSC[C@@H](C(=O)N[C@@H](CCCCN)C(=O)N[C@@H](Cc2ccc(O)cc2)C(=O)N[C@H](C(=O)N[C@@H](Cc2ccccc2)C(=O)N[C@@H](CCCNC(=N)N)C(N)=O)C(C)C)NC(=O)[C@H](Cc2c[nH]c4ccccc24)NC(=O)[C@H](CCCCN)NC(=O)[C@H](Cc2cnc[nH]2)NC(=O)[C@H]([C@@H](C)O)NC(=O)[C@H](CCCNC(=N)N)NC(=O)[C@H](CO)NC3=O)NC(=O)[C@H](CCCCN)NC(=O)[C@H](CC(=O)O)NC(=O)[C@H](CC(N)=O)NC(=O)[C@H](CC(=O)O)NC(=O)[C@@H]2CCCN2C1=O` [compound 76] showed a pIC50 (hNav1.3; use-dependent, […]) of 7.00, a pIC50 (hNav1.7; IonWorks Quattro, use-dependent, […], read-out: IWQ Use Nav1.7 (μm)) of 6.52 and a pIC50 (hNav1.5; IonWorks Quattro, use-dependent, […], read-out: IWQ Use Nav1.5) of 5.01.
`CC[C@H](C)[C@@H]1NC(=O)[C@@H]2CSSC[C@@H]3NC(=O)[C@H](C(C)C)NC(=O)[C@H](CC(C)C)NC(=O)[C@H](CC(N)=O)NC(=O)[C@@H]4CCCN4C(=O)[C@H](CCCNC(=N)N)NC(=O)[C@H](CSSC[C@H](NC(=O)[C@@H](N)CC(=O)O)C(=O)N[C@@H](CC(C)C)C(=O)NCC(=O)N[C@@H](C(C)C)C(=O)N[C@@H](CCSC)C(=O)N[C@@H](CCCNC(=N)N)C(=O)N[C@@H](CCCCN)C(=O)N2)NC(=O)[C@H](CSSC[C@@H](C(=O)N[C@@H](CCCCN)C(=O)N[C@@H](Cc2ccc(O)cc2)C(=O)N[C@H](C(=O)N[C@@H](Cc2ccccc2)C(N)=O)C(C)C)NC(=O)[C@H](Cc2c[nH]c4ccccc24)NC(=O)[C@H](CCC(=O)O)NC(=O)[C@H](Cc2c[nH]cn2)NC(=O)[C@H]([C@@H](C)O)NC(=O)[C@H](CCCNC(=N)N)NC(=O)[C@H](CO)NC3=O)NC(=O)[C@H](CCCCN)NC(=O)[C@H](CC(=O)O)NC(=O)[C@H](CC(N)=O)NC(=O)[C@H](CC(=O)O)NC(=O)[C@@H]2CCCN2C1=O` [compound 704] (H-DCLGVMRKCIPDNDKCCRPNLVCSRTHEWCKYVF-NH2; disulfide 2-17, 9-23, 16-30) showed a pIC50 (hNav1.3; [1]) of less than 5.30, a pIC50 (hNav1.7; [2]) of 6.00 and a pIC50 (hNav1.5; [3]) of 4.31.
With `CSCC[C@@H]1NC(=O)[C@H](Cc2ccccc2)NC(=O)CNC(=O)[C@H](CC(C)C)NC(=O)[C@@H](NC(=O)[C@@H](N)CC(=O)O)CSSC[C@@H]2NC(=O)[C@@H]3CSSC[C@@H](C(=O)N[C@@H](CCCCN)C(=O)N[C@@H](Cc4ccc(O)cc4)C(=O)N[C@H](C(=O)N[C@@H](Cc4ccccc4)C(N)=O)C(C)C)NC(=O)[C@H](Cc4c[nH]c5ccccc45)NC(=O)[C@H](CCCCN)NC(=O)[C@H](Cc4cnc[nH]4)NC(=O)[C@H]([C@@H](C)O)NC(=O)[C@H](CCCNC(=N)N)NC(=O)[C@H](CO)NC(=O)[C@H](CSSC[C@H](NC(=O)[C@H](CCCCN)NC(=O)[C@H](CCCNC(=N)N)NC1=O)C(=O)N[C@@H](CCCNC(=N)N)C(=O)N1CCC[C@H]1C(=O)N[C@@H](CC(=O)O)C(=O)N[C@@H](CC(N)=O)C(=O)N[C@@H](CC(=O)O)C(=O)N[C@@H](CCCCN)C(=O)N3)NC(=O)[C@H](C(C)C)NC(=O)[C@H](CC(C)C)NC(=O)[C@H](CC(N)=O)NC(=O)[C@@H]1CCCN1C(=O)[C@H](CCCNC(=N)N)NC2=O` [compound 66] (H-DCLGFMRKCRPDNDKCCRPNLVCSRTHKWCKYVF-NH2; disulfide 2-17, 9-23, 16-30) the pIC50 (hNav1.3; Use) was 6.96, the pIC50 (hNav1.7) was 6.80 and the pIC50 (hNav1.5; IonWorks Quattro, Use, read-out: IWQ Use Nav1.5) was 4.82.
For `CC[C@H](C)[C@@H]1NC(=O)[C@@H]2CSSC[C@@H]3NC(=O)[C@H](C(C)C)NC(=O)[C@H](CC(C)C)NC(=O)[C@H](CC(N)=O)NC(=O)[C@@H]4CCCN4C(=O)[C@H](CCCNC(=N)N)NC(=O)[C@H](CSSC[C@H](NC(=O)[C@@H](N)CC(=O)O)C(=O)N[C@@H](CC(C)C)C(=O)NCC(=O)N[C@@H](Cc4ccc(C)cc4)C(=O)N[C@@H](CCSC)C(=O)N[C@@H](CCCNC(=N)N)C(=O)N[C@@H](CCCCN)C(=O)N2)NC(=O)[C@H](CSSC[C@@H](C(=O)N[C@@H](CCCCN)C(=O)N[C@@H](Cc2ccc(O)cc2)C(=O)N[C@H](C(=O)N[C@@H](Cc2ccccc2)C(N)=O)C(C)C)NC(=O)[C@H](Cc2c[nH]c4ccccc24)NC(=O)[C@H](CCCCN)NC(=O)[C@H](Cc2c[nH]cn2)NC(=O)[C@H]([C@@H](C)O)NC(=O)[C@H](CCCNC(=N)N)NC(=O)[C@H](CO)NC3=O)NC(=O)[C@H](CCCCN)NC(=O)[C@H](CC(=O)O)NC(=O)[C@H](CC(N)=O)NC(=O)[C@H](CC(=O)O)NC(=O)[C@@H]2CCCN2C1=O` [compound 686], the pIC50 (hNav1.3; [1]) was 6.74, the pIC50 (hNav1.7; [2]) was 6.31 and the pIC50 (hNav1.5; IWQ Use Nav1.5) was less than 5.30.
In the case of `CC[C@H](C)[C@@H]1NC(=O)[C@@H]2CSSC[C@@H]3NC(=O)[C@H](C(C)C)NC(=O)[C@H](CC(C)C)NC(=O)[C@H](CC(N)=O)NC(=O)[C@@H]4CCCN4C(=O)[C@H](CCCNC(=N)N)NC(=O)[C@H](CSSC[C@H](NC(=O)[C@@H](N)CC(=O)O)C(=O)N[C@@H](CC(C)C)C(=O)NCC(=O)N[C@@H](C)C(=O)N[C@@H](CCSC)C(=O)N[C@@H](CCCNC(=N)N)C(=O)N[C@@H](CCCCN)C(=O)N2)NC(=O)[C@H](CSSC[C@@H](C(=O)N[C@@H](CCCCN)C(=O)N[C@@H](Cc2ccc(O)cc2)C(=O)N[C@H](C(=O)N[C@@H](CCC(=O)O)C(N)=O)C(C)C)NC(=O)[C@H](Cc2c[nH]c4ccccc24)NC(=O)[C@H](CCCCN)NC(=O)[C@H](Cc2c[nH]cn2)NC(=O)[C@H]([C@@H](C)O)NC(=O)[C@H](CCCNC(=N)N)NC(=O)[C@H](CO)NC3=O)NC(=O)[C@H](CCCCN)NC(=O)[C@H](CC(=O)O)NC(=O)[C@H](CC(N)=O)NC(=O)[C@H](CC(=O)O)NC(=O)[C@@H]2CCCN2C1=O` [compound 430] (H-DCLGAMRKCIPDNDKCCRPNLVCSRTHKWCKYVE-NH2; disulfide 2-17, 9-23, 16-30), the pIC50 (hNav1.3; use-dependent block, hNav1.3) was less than 5.30, the pIC50 (hNav1.7; IonWorks Quattro, use-dependent block, hNav1.7, read-out: IWQ Use Nav1.7) was less than 5.30 and the pIC50 (hNav1.5; IonWorks Quattro, use-dependent block, hNav1.5, read-out: IWQ Use Nav1.5) was less than 5.30.
